From publication PMC8896685 (PLoS ONE, 2022)
Numbered stars: 1 amine (or outer) side, 2 acyl side, 3 side chain; on linkers, the order of the positions; unused ones are H or OH. Square brackets hold non-standard residues; d marks the D form. Side chains are listed from the residue outwards. Peptide text beside a SMILES is read from it. * marks the point of attachment. C18 diacid = O=C(O)CCCCCCCCCCCCCCCCC(=O)*; γGlu = O=C(O)[C@H](CCC(=O)[*:2])N[*:1]; AEEA = NCCOCCOCC(=O)O; Aib = CC(C)(N)C(=O)O

Legend:
[1] = system: DIO mice; experiment: Subchronic effect on energy expenditure in DIO mice (indirect calorimetry); format: in vivo, mouse; conditions: 5 nmol/kg s.c. once daily, eleven days
Method: DIO mice (n = 8) were treated once daily s.c. in the morning for eleven days with vehicle or 5 nmol/kg NN1177. Forty-eight hours prior to first dose and during the study, the metabolic phenotype was determined using the PhenoMaster system (TSE Systems GmbH, Bad Homburg, Germany). During this period, air flow, temperature, oxygen- and carbon dioxide content, oxygen uptake (VO2) and carbon dioxide production (VCO2) were simultaneously measured using standard indirect calorimetry analysis. The respiratory exchange rate (RER) and energy expenditure (EE) were calculated automatically from VO2 and VCO2. Furthermore, voluntary activity in x-y dimensions was determined. All parameters were measured simultaneously for one min per cage in two cages at a time, resulting in a time resolution of data points of 9 min. Statistical analysis was performed as one-way ANOVA followed by Dunnets post-hoc test. Statistics on body weight was performed as one-way ANOVA at the last day of treatment. Statistics on energy expenditure data was calculated using two-way ANOVA with repeated measures with Bonferroni’s post hoc test. Statistical analysis was performed on average light-dark period values (only raw data, no mean data is presented). p<0.05 was considered statistically significant. GraphPad Prism 6.4 (GraphPad) was used for all in vivo data visualization as well as statistical analyses.

[2] = system: DIO mice; experiment: Acute effect on glucose tolerance in DIO mice (IPGTT); format: in vivo, mouse; conditions: 3 or 5 nmol/kg s.c., at Cmax and at Cmin, p<0.001
Method: All animals received a single s.c. injection of compound at 4 pm, 21 h prior to administration of glucose (for all treated animals to have equally affected food intake in the dark period prior to the intraperitoneal glucose tolerance test (IPGTT)). […] Animals were fasted for 5–6 h prior to intraperitoneal (i.p.) injection of 2 g/kg glucose.

[3] = target: T1, Rat GLP-1R (Rattus norvegicus, UniProt P32301); experiment: Receptor potency, CRE-luciferase functional assay in BHK cells; format: cell-based; conditions: Rat receptors, whole BHK cells, 0% plasma, 3 h 37°C, value (95% CI)
T1 construct: a plasmid encoding either the glucagon receptor or the GLP-1 receptor from the relevant species; expressed in transfected cells
T1 sequence (P32301 22-463): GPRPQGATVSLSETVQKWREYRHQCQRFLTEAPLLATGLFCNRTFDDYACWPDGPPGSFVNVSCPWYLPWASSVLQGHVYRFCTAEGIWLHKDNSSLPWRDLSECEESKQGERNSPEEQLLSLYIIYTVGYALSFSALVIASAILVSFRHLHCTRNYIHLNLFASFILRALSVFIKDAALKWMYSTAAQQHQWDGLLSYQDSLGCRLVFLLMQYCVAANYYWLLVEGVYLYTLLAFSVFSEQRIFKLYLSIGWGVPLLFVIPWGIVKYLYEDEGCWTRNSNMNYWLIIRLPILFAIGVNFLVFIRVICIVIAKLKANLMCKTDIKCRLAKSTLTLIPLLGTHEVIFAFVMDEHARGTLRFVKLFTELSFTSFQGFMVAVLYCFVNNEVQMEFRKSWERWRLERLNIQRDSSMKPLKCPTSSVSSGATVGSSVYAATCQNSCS
Method: The binding assay was performed on cell membranes in the presence of 1% (v/v) species-specific heparin-treated pooled plasma (Bioreclamation IVT, Westbury, NY) diluted in assay buffer (50 mM HEPES supplemented with 5 mM EGTA, 5 mM MgCl2, and 0.005% (v/v) Tween 20, pH7.4). […] Cells stably expressing an individual receptor of interest were grown at 5% CO2, 37°C in DMEM (supplemented with 10% FCS, 0.5 mg/ml G418 and 0.3 mg/ml hygromycin). Membrane preparations were made from cells harvested at approximately 80% confluence, washed and homogenized in 20 mM HEPES with 0.1 mM EDTA, pH 7.4. Protein concentration was determined, and the membranes were stored at -80°C until use. The membrane binding assay was performed in a 96-well OptiPlate (PerkinElmer) in a total volume of 200 μl. Test compounds were dissolved in 80% DMSO and further diluted in assay buffer. 50 μl of diluted plasma was added to the assay plate wells followed by addition of test compounds (25 μl), cell membranes (50 μl, 0.06 mg/ml), SPA beads (20 mg/ml in assay buffer) and radioligand (60,000 cpm/well, corresponding to 0.06 nM; 2200 Ci/mmol. Each assay plate was incubated for 2 h at 30°C, centrifuged at 1500 rpm for 10 minutes and counted in a TopCount NXT instrument (PerkinElmer).
Functional assays were performed on whole cells in the absence or presence of 100% species-specific heparin-treated pooled plasma (Bioreclamation IVT). […] The cells were cultured with DMEM (supplemented with GlutaMAX, 10% FBS, 0.5 mg/ml G418 and 0.3 mg/ml hygromycin) at 5% CO2 and 37°C. At approximately 80–90% confluence, cells were washed with PBS and harvested with Versene (Life Technologies, Carlsbad, CA). The cells were counted and plated into 96-well microtiter plates coated with poly-D-Lys (Corning BioCoat) with 5,000 cells/well and thereafter incubated overnight in growth media. The next day the media was changed to assay buffer (DMEM without phenol red, supplemented with GlutaMAX, 10 mM HEPES, 1% ovalbumin and 0.1% Pluronic F-68) or to 100% plasma. In the absence of plasma, compounds were diluted in assay buffer. In assays tested with plasma, compounds were diluted in pure plasma. Buffer was removed from the plates and 50 μl of test compound dilutions was added to the plates followed by 50 μl of plasma or the same buffer used for compound dilution. The assay plates were incubated for 3 h in a 5% CO2 incubator at 37°C. The plates were then transferred to room temperature for 15 min and 100 μl Steadylite Plus reagent (PerkinElmer) was added to each well. The plates were shaken for 30 min at room temperature while protected from light after which luminescence was measured.
For the receptor binding assays, logIC50 values were calculated using non-linear regression analysis. The error estimation was reported as the 95% confidence interval. […] The calculations were performed in GraphPad Prism 6.4 (GraphPad, San Diego, CA) and error estimation was expressed as the 95% confidence interval. […] Averages, error estimation, ratios and plasma shifts were all calculated on logIC50 or logEC50 values and transformed to the anti-log values for reporting purposes.

[4] = in vivo; conditions: mouse, sc
Method: Compound exposure was measured by Luminescence Oxygen Channeling Immunoassay (LOCI). […] The three reactants were combined with the analyte and formed a two-sited immuno-complex. Illumination of the complex released singlet oxygen […] from the donor beads. They were channeled into the acceptor beads and triggered a chemiluminescence response which was measured in an EnVision plate reader (PerkinElmer). The amount of light was proportional to the concentration of the analyte. As calibrators, a dilution line of the relevant analyte in rat/mouse plasma was included.
Plasma concentration-time profiles were analysed using non-compartmental analysis (NCA) using Phoenix WinNonlin Professional 6.3 (Pharsight, Mountain View, CA, US). Calculations were performed using full concentration-time profile values or sparse sampling concentration-time values as appropriate.

| EC50 [3] | half-life [4] | Compound | Body weight loss during treatment period [1] | Physical activity [1] | Respiratory exchange ratio (RER) ([1]; light and dark period, p<0.001) | Energy expenditure per body weight ([1]; light and dark period, p<0.01 day 3, p<0.001 day 5–11) | Glucose tolerance (IPGTT) vs vehicle ([2]; 2 g/kg glucose i.p.) | Basal blood glucose vs vehicle [2] |
| --- | --- | --- | --- | --- | --- | --- | --- | --- |
| – | – | CC(C)C[C@H](NC(=O)[C@H](Cc1ccc(O)cc1)NC(=O)[C@H](CCCCN)NC(=O)[C@H](CO)NC(=O)[C@H](CC(C)C)NC(=O)[C@H](CC(=O)O)NC(=O)[C@H](CO)NC(=O)[C@@H](NC(=O)[C@H](Cc1ccccc1)NC(=O)[C@@H](NC(=O)CNC(=O)[C@H](CCC(N)=O)NC(=O)C(C)(C)NC(=O)[C@@H](N)Cc1c[nH]cn1)[C@@H](C)O)[C@@H](C)O)C(=O)N[C@@H](CCC(=O)O)C(=O)N[C@@H](CO)C(=O)N[C@@H](CCCCN)C(=O)N[C@@H](CCCNC(=N)N)C(=O)N[C@@H](C)C(=O)N[C@@H](CCCNC(=N)N)C(=O)N[C@@H](CCC(=O)O)C(=O)N[C@@H](Cc1ccccc1)C(=O)N[C@H](C(=O)N[C@@H](CCC(N)=O)C(=O)N[C@@H](Cc1c[nH]c2ccccc12)C(=O)N[C@@H](CC(C)C)C(=O)N[C@@H](CC(C)C)C(=O)N[C@@H](CCCCNC(=O)CC[C@H](NC(=O)CC[C@H](NC(=O)[C@H](CO)NC(=O)[C@H](CCC(=O)O)NC(=O)[C@H](CO)NC(=O)CC[C@H](NC(=O)CC[C@H](NC(=O)CCCCCCCCCCCCCCCCC(=O)O)C(=O)O)C(=O)O)C(=O)O)C(=O)O)C(=O)N[C@H](C(N)=O)[C@@H](C)O)C(C)C [NN1177] (H-H[Aib]QGTFTSDLSKYLESKRAREFVQWLLK([γGlu-γGlu-Ser-Glu-Ser-γGlu-γGlu-C18 diacid])T-NH2) | approximately 30% | not affected | decreased significantly | increased | improved | improved |
| 2.99 pM | 11 h | CC(C)C[C@H](NC(=O)[C@H](CC(C)C)NC(=O)[C@H](Cc1c[nH]c2ccccc12)NC(=O)[C@H](CCC(N)=O)NC(=O)[C@@H](NC(=O)[C@H](Cc1ccccc1)NC(=O)[C@H](CCC(=O)O)NC(=O)[C@H](CCCNC(=N)N)NC(=O)[C@H](C)NC(=O)[C@H](C)NC(=O)[C@H](CCCNC(=N)N)NC(=O)[C@H](CO)NC(=O)[C@H](CC(=O)O)NC(=O)[C@H](CC(C)C)NC(=O)[C@H](Cc1ccc(O)cc1)NC(=O)[C@H](CCCCN)NC(=O)[C@H](CO)NC(=O)[C@H](CC(C)C)NC(=O)[C@H](CC(=O)O)NC(=O)[C@H](CO)NC(=O)[C@@H](NC(=O)[C@H](Cc1ccccc1)NC(=O)[C@@H](NC(=O)CNC(=O)[C@H](CCC(=O)O)NC(=O)C(C)(C)NC(=O)[C@@H](N)Cc1c[nH]cn1)[C@@H](C)O)[C@@H](C)O)C(C)C)C(=O)N[C@@H](CC(N)=O)C(=O)N[C@@H](CCCCNC(=O)CC[C@H](NC(=O)CC[C@H](NC(=O)COCCOCCNC(=O)COCCOCCNC(=O)CC[C@H](NC(=O)CCCCCCCCCCCCCCCCC(=O)O)C(=O)O)C(=O)O)C(=O)O)C(N)=O [GLP-1 reference] (H-H[Aib]EGTFTSDLSKYLDSRAAREFVQWLLNK([γGlu-γGlu-AEEA-AEEA-γGlu-C18 diacid])-NH2) | – | – | – | – | – | – |
